Values after ≈ are worked out from the molar mass of the structure shown. Where two headings read alike, the source gives them in different places.
Legend:
[1] = test system: Acinetobacter baumannii NCTC 13420; test: MIC, broth microdilution (CLSI); format: cell-based; details: A. baumannii NCTC 13420, 16-20 h, mode of three experiments
[2] = test system: Enterobacter cloacae NCTC 13406; test: MIC, broth microdilution (CLSI); format: cell-based; details: E. cloacae NCTC 13406, 16-20 h, mode of three experiments
[3] = test system: Escherichia coli ATCC 25922; test: MIC, broth microdilution (CLSI); format: cell-based; details: E. coli ATCC 25922, 16-20 h, mode of three experiments
[4] = test system: Haemophilus influenzae ATCC 49247; test: MIC, broth microdilution (CLSI); format: cell-based; details: H. influenzae ATCC 49247, 16-20 h, mode of three experiments
[5] = test system: Klebsiella pneumoniae ATCC 700603; test: MIC, broth microdilution (CLSI); format: cell-based; details: K. pneumoniae ATCC 700603, 16-20 h, mode of three experiments
[6] = test system: Mycobacterium smegmatis ATCC 19420; test: MIC, broth microdilution (CLSI); format: cell-based; details: M. smegmatis ATCC 19420, 16-20 h, mode of three experiments
[7] = test system: Pseudomonas aeruginosa ATCC 27853; test: MIC, broth microdilution (CLSI); format: cell-based; details: P. aeruginosa ATCC 27853, 16-20 h, mode of three experiments
[8] = test system: Staphylococcus aureus ATCC 29213; test: MIC, broth microdilution (CLSI); format: cell-based; details: S. aureus ATCC 29213, 16-20 h, mode of three experiments
[9] = test system: Streptococcus pneumoniae ATCC 49619; test: MIC, broth microdilution (CLSI); format: cell-based; details: S. pneumoniae ATCC 49619, 16-20 h, mode of three experiments
[10] = test system: HepG2 ATCC HB-8065; test: Human cell viability assay (CellTiter-Glo); format: cell-based; details: for IC50: Homo sapiens; for IC50 / IC50 HepG2: HepG2 cell viability, 24 h with compound, range 1-128 μg/mL
Experimental: Compounds are assessed for potential non-specific cytotoxic effects against a human hepatic cell line (HepG2 ATCC HB-8065). HepG2 cells are seeded at 20,000 cells/well in 96-well microtitre plates in minimal essential medium (MEM) supplemented with a final concentration of 10% FBS and 1 mM sodium pyruvate. After 24 h compound dilutions are prepared in Dulbecco's minimum essential media (DMEM) supplemented with final concentrations of 0.001% FBS, 0.3% bovine albumin and 0.02% HEPES and added to cells. Compounds are tested in two-fold serial dilutions over a final concentration range of 1-128 μg/mL in a final DMSO concentration of 1% vol/vol. Chlorpromazine is used as a positive control. Cells are incubated with compound at 37° C. and 5% CO2 for a further 24 h, after which time the CellTiter-Glo reagent (Promega) is added. Luminescence is measured on a BMG Omega plate reader. Data are analysed using GraphPad Prism software to determine the concentration of compound that inhibits cell viability by fifty percent (IC50).

[11] = test system: Klebsiella pneumoniae NCTC 13443; test: MIC, broth microdilution (CLSI); format: cell-based; details: NCTC13443, K. pneumoniae NCTC 13443, 16-20 h, mode of three experiments
[12] = test system: Acinetobacter baumannii ATCC 19606; test: MIC, broth microdilution (CLSI); format: cell-based; details: A. baumannii ATCC 19606, 16-20 h, mode of three experiments
[13] = test system: E. coli ATCC BAA-2452; test: MIC, broth microdilution (CLSI); format: cell-based, Escherichia coli; details: Escherichia coli, 16-20 h, mode of three experiments, read-out: MIC
[14] = test system: E. coli NCTC 13476; test: MIC, broth microdilution (CLSI); format: cell-based, Escherichia coli; details: Escherichia coli, NCTC13476, 16-20 h, mode of three experiments, read-out: MIC
[15] = test system: E. coli MG1655 WT; test: MIC, broth microdilution (CLSI); format: cell-based, Escherichia coli; details: Escherichia coli, MG1655
[16] = test system: E. coli MG1655 S83L; format: cell-based, Escherichia coli; details: compared to the isogenic parent strain E. coli MG1655; S83L mutation on DNA gyrase subunit GyrA
[17] = test system: E. coli MG1655 D87G; format: cell-based, Escherichia coli; details: compared to the isogenic parent strain E. coli MG1655; D87G mutation on DNA gyrase subunit GyrA
[18] = Acinetobacter baumannii, NCTC13420, read-out: MIC
[19] = Enterobacter cloacae, NCTC13406, read-out: MIC
[20] = Escherichia coli, ATCC25922, read-out: MIC
[21] = Haemophilus influenzae, ATCC49247, read-out: MIC
[22] = Klebsiella pneumoniae, ATCC700603, read-out: MIC
[23] = Pseudomonas aeruginosa, ATCC27853, read-out: MIC
[24] = Staphylococcus aureus, ATCC29213, read-out: MIC
[25] = Streptococcus pneumoniae, ATCC49619, read-out: MIC
[26] = Acinetobacter baumannii, ATCC19606, read-out: MIC

SMILES	MIC [1, 18]	MIC [2, 19]	MIC [3, 20]	MIC [4, 21]	MIC [5, 22]	MIC [7, 23]	MIC [8, 24]	MIC [9, 25]	IC50 [10]	MIC [12, 26]	MIC [13]	MIC [14]	MIC [15]	Fold increase in MIC against E. coli MG1655 S83L [16]	Fold increase in MIC against E. coli MG1655 D87G [17]	MIC [1]	MIC [2]	MIC [3]	MIC [4]	MIC [5]	other results
COc1ccc2ccc(=O)n(CCN3C[C@@H]4CN(c5ccc6c(n5)NC(=O)CO6)C(=O)O[C@H]4C3)c2n1 (relative stereo) [Compound 1]	< 1 µg/mL	1 to 10 µg/mL (≈ 2.03 to 20.3 µM)	< 1 µg/mL	< 1 µg/mL	10 to 100 µg/mL (≈ 20.3 to 203 µM)	1 to 10 µg/mL (≈ 2.03 to 20.3 µM)	< 1 µg/mL	< 1 µg/mL	> 100 µg/mL												MIC ([6]; Mycolicibacterium smegmatis, ATCC19420, read-out: MIC): < 1 µg/mL
N#Cc1cccc(-c2cccc(CN3C[C@@H]4CN(c5ccc6c(n5)NC(=O)CO6)C(=O)O[C@H]4C3)c2O)n1 (relative stereo) [Compound 3]	1 to 10 µg/mL (≈ 2.01 to 20.1 µM)	> 100 µg/mL	1 to 10 µg/mL (≈ 2.01 to 20.1 µM)	1 to 10 µg/mL (≈ 2.01 to 20.1 µM)	> 100 µg/mL	> 100 µg/mL	< 1 µg/mL	1 to 10 µg/mL (≈ 2.01 to 20.1 µM)	10 to 100 µg/mL (≈ 20.1 to 201 µM)												MIC [11]: 1 to 10 µg/mL (≈ 2.01 to 20.1 µM); toxicity against HepG2 human hepatic cell line (in words) ([10]; summary of Table 3): acceptable level of hepatic toxicity
N#Cc1ccc2ccc(=O)n(CCN3CC4CN(c5ccc6c(n5)NC(=O)CO6)C(=O)O[C@@H]4C3)c2c1 (stereo in doubt) [Compound 12, 1-{2-[(4aR,7aS)-2-oxo-3-{3-oxo-2H,3H,4H-pyrido[3,2-b][1,4]oxazin-6-yl}-octahydropyrrolo[3,4-e][1,3]oxazin-6-yl]ethyl}-2-oxo-1,2-dihydroquinoline-7-carbonitrile]	< 1 µg/mL	1 to 10 µg/mL (≈ 2.06 to 20.6 µM)	< 1 µg/mL	< 1 µg/mL	10 to 100 µg/mL (≈ 20.6 to 206 µM)	1 to 10 µg/mL (≈ 2.06 to 20.6 µM)	< 1 µg/mL	< 1 µg/mL	> 100 µg/mL	1 to 10 µg/mL (≈ 2.06 to 20.6 µM)	< 1 µg/mL	1 to 10 µg/mL (≈ 2.06 to 20.6 µM)	< 1 µg/mL	1 fold	1 fold						
N#Cc1ccc2ccc(=O)n(CCN3CC4CN(c5ccc6c(n5)NC(=O)CO6)C(=O)O[C@H]4C3)c2c1 (stereo in doubt) [Compound 17, 1-{2-[(4aS,7aR)-2-oxo-3-{3-oxo-2H,3H,4H-pyrido[3,2-b][1,4]oxazin-6-yl}-octahydropyrrolo[3,4-e][1,3]oxazin-6-yl]ethyl}-2-oxo-1,2-dihydroquinoline-7-carbonitrile]	< 1 µg/mL	1 to 10 µg/mL (≈ 2.06 to 20.6 µM)	< 1 µg/mL	< 1 µg/mL	10 to 100 µg/mL (≈ 20.6 to 206 µM)	1 to 10 µg/mL (≈ 2.06 to 20.6 µM)	< 1 µg/mL	< 1 µg/mL	> 100 µg/mL	1 to 10 µg/mL (≈ 2.06 to 20.6 µM)	1 to 10 µg/mL (≈ 2.06 to 20.6 µM)	1 to 10 µg/mL (≈ 2.06 to 20.6 µM)	< 1 µg/mL	0.5 fold	2 fold						
O=C1COc2ccc(N3C[C@@H]4CN(CCn5c(=O)ccc6ccc(Oc7cccnc7)nc65)C[C@@H]4OC3=O)nc2N1 (relative stereo) [Compound 7, rel-1-{2-[(4aS*,7aR*-2-oxo-3-{3-oxo-2H,3H,4H-pyrido[3,2-b][1,4]oxazin-6-yl}-octahydropyrrolo[3,4-e][1,3]oxazin-6-yl]ethyl}-7-(pyridin-3-yloxy)-1,2-dihydro-1,8-naphthyridin-2-one]																B (a MIC of from 1 to 10 is assigned the letter B)	C (a MIC of from 10 to 100 is assigned the letter C)	B (a MIC of from 1 to 10 is assigned the letter B)	A (an MIC (in μg/mL) of less or equal to 1 is assigned the letter A)	C (a MIC of from 10 to 100 is assigned the letter C)	MIC [6]: A (an MIC (in μg/mL) of less or equal to 1 is assigned the letter A); MIC [7]: C (a MIC of from 10 to 100 is assigned the letter C); MIC [8]: A (an MIC (in μg/mL) of less or equal to 1 is assigned the letter A); MIC [9]: A (an MIC (in μg/mL) of less or equal to 1 is assigned the letter A); IC50 HepG2 [10]: A (an IC50 of over 100 is assigned the letter A)
COc1ccc2c3nocc3c(=O)n(CCN3C[C@H]4CN(c5ccc6c(n5)NC(=O)CO6)C(=O)O[C@H]4C3)c2c1 (relative stereo) [Compound 9, rel-(4aS*,7aR*-6-(2-{7-methoxy-4-oxo-4H,5H-[1,2]oxazolo[3,4-c]quinolin-5-yl}ethyl)-3-{3-oxo-2H,3H,4H-pyrido[3,2-b][1,4]oxazin-6-yl}-octahydropyrrolo[3,4-e][1,3]oxazin-2-one]																D (a MIC of over 100 is assigned the letter D)	D (a MIC of over 100 is assigned the letter D)	C (a MIC of from 10 to 100 is assigned the letter C)	B (a MIC of from 1 to 10 is assigned the letter B)	D (a MIC of over 100 is assigned the letter D)	MIC [12]: A (an MIC (in μg/mL) of less or equal to 1 is assigned the letter A); MIC [6]: A (an MIC (in μg/mL) of less or equal to 1 is assigned the letter A); MIC [7]: D (a MIC of over 100 is assigned the letter D); MIC [8]: A (an MIC (in μg/mL) of less or equal to 1 is assigned the letter A); MIC [9]: B (a MIC of from 1 to 10 is assigned the letter B); IC50 HepG2 [10]: C (an IC50 of from 1 to 10 is assigned the letter C)

— patent US20210179636A1, “ANTIBACTERIAL COMPOUNDS” (priority 2016, published 2021)
